Assay results taken from US9062088B2, “CDK-inhibiting pyrrolopyrimidine carboxamide derivative or pharmaceutically acceptable salt thereof, and pharmaceutical composition containing the same as active ingredient for preventing or treating hepatocellular carcinoma” (SNU R&DB Foundation, priority 2010, dated 2015).

Columns and labels:
[1] = system: SNU-354 xenografted tumor; test: SNU-354 cancer xenograft, tumor growth; format: in vivo; conditions: 5 times/week for 3 weeks, nude mice
Procedure: (§1) Male nude mice at 5˜6 weeks were purchased from Central Lab. Animal Inc. (Republic of Korea). The mice were raised in the test animal laboratory at College of Pharmacy, Seoul National University. All the experiments with test animals were performed by the protocol set by Institute of Laboratory Animal Resources, Seoul National University. 1×10^7 cells of the human hepatocellular carcinoma cell line SNU-354 were suspended in 200 μl of PBS, which was injected into the right front paw of the mouse by subcutaneous injection, followed by observation until the xenograft tumor grew to 100±30 mm^3. The mice having tumors reaching the proper size were divided into three groups (n=8). One of the groups was used as the control (treated with vehicle) and the other two groups were treated with the compound of Example 2 at the concentrations of 4 mg/kg and 20 mg/kg respectively, once a day for 3 weeks (5 times/week) by intraperitoneal injection. The control group was treated with 5% ethanol and 30% polyethylene glycol 200 (Fluka, Netherlands). The administration schedule was marked on data. Tumor size, body weight and other conditions of the animal were observed every day until the tumor size reached 2000 mm^3. The tumor size was calculated by V=a×b×c×π/6 (a=long axis of the tumor, b=short axis of the tumor, c=height of the tumor). 33 days after the treatment, the mice were sacrificed. […]

Mcl-1, survivin, XIAP = test: Western blotting of Mcl-1, survivin, XIAP proteins in SNU-354 cells; format: cell-based, human; conditions: FIG. 13
Procedure: (§2) After treating the compound of Example 2 to SNU-354 cells, cell pellet was lysed with lysis buffer (0.5% triton X-100, 20 mM Tris-HCl (pH 7.5), 2 mM magnesium chloride, 1 mM DTT, 1 mM EGTA, 50 mM β-glycerophosphate, 25 mM sodium fluoride, 1 mM Na3VO4, 2 μg/mL leupeptin, 2 μg/mL pepstatin A, 100 μg/mL phenylmethylsulfonyl fluoride, and 1 μg/mL antipain) at 4° C. for 1 hour, followed by quantification of protein. A proper amount of protein was electrophoresed on SDS-PAGE gel and then transferred onto polyvinylidene difluoride membrane (Millipore Co., Bedford, Mass.). The membrane was reacted in inhibiting solution (PBS, 5% skim milk, 0.1% tween-20) at room temperature for 1˜2 hours. The membrane was reacted with the primary antibody (goat anti-phospho-Rb, rabbit anti-nucleolin) diluted in the inhibiting solution (1:1000). Then, the membrane was washed with PBST, followed by reaction with the proper secondary antibody (horseradish peroxidase (HRP) conjugated) at room temperature for 1 hour.
Experiment was performed by the same manner as described in step 2 of Experimental Example 1 except that rabbit anti-Mcl-1 (from Santa Cruz Biochemicals, CA, USA), rabbit anti-survivin, rabbit anti-XIAP (from Cell Signaling, MA, USA), and rabbit anti-Actin (from Sigma, USA) were used as primary antibodies.

normal liver tissues = test: TUNEL assay and caspase-3 immunohistochemistry of normal liver tissues; format: in vivo, nude mice; conditions: treated mice; FIG. 23-B
Procedure: All the xenografted tumors and liver tissues extracted above were fixed in 36% formaldehyde solution (Junsei Chemical Co., Ltd, Tokyo, JAPAN), followed by paraffin embedding. The embedded tissues were cut into 5 μm sections. H&E staining and TUNEL assay were performed for examining apoptosis with those sections. The expression of cleaved caspase-3 in the tissue section was measured by using cleaved caspase-3 monoclonal antibody (Cell Signaling, MA, USA). ABC peroxidase (Dako Cytomation California, Inc., CA, USA) labeling was performed for immunological sensitization and the results are shown in FIG. 23. As shown in FIG. 23-A, TUNEL positive spots and caspase-3 positive spots were observed more in the group treated with the compound of Example 2 than in the control. […] As shown in FIG. 23-B, it was investigated whether or not the compound of Example 2 could affect normal liver tissues.

p-Nucleolin (Cdk1) = test: Western blotting of p-nucleolin (Cdk1) in SNU-354 cells; format: cell-based, human
Procedure: SNU-354 cells were cultured in RPMI 1640 (Invitrogen, CA, USA) supplemented with 10% FBS (Invitrogen) and antibiotics/antimycotics (Invitrogen) in a 5% CO2 incubator at 37° C. […]
as §2

[2] = Body weight of xenograft mice; format: in vivo, nude mice; conditions: 4 mg/kg and 20 mg/kg intraperitoneal; FIG. 21
Procedure: as §1

CC(C)C(=O)OC[C@@H]1O[C@H](n2cnc(N)c3c(C(N)=O)c(Br)nc2-3)[C@H](O)[C@H]1O [Example 2, ((2S,3R,4R,5S)-5-(4-amino-6-bromo-5-carbamoyl-1H-pyrrolo[2,3-d]pyrimidin-1-yl)-3,4-dihydroxy-tetrahydrofuran-2-yl)methyl isobutyrate]
growth of the tumor reduced at average, compared with the control ([1]; 4 mg/kg/day intraperitoneal): 15% | growth of the tumor reduced at average, compared with the control ([1]; 20 mg/kg/day intraperitoneal): 47% | Mcl-1, Survivin and XIAP protein level (Mcl-1, survivin, XIAP): down-regulated | apoptosis in normal liver tissues (TUNEL, caspase-3 immunohistochemistry) (normal liver tissues): apoptosis was not observed at all | Phosphorylation (%) p-Nucleolin (Cdk1) (p-Nucleolin (Cdk1); treatment time 6 (hours)): 96.9% | Phosphorylation (%) p-Nucleolin (Cdk1) (p-Nucleolin (Cdk1); treatment time 12 (hours)): 11.7% | Phosphorylation (%) p-Nucleolin (Cdk1) (p-Nucleolin (Cdk1); treatment time 18 (hours)): 3.1% | Phosphorylation (%) p-Nucleolin (Cdk1) (p-Nucleolin (Cdk1); treatment time 24 (hours)): 3.0% | weight change of test animals [2]: no weight change
